{"source": "patent US20130197069A1", "about": "“METHODS FOR TREATING STRESS INDUCED EMOTIONAL DISORDERS” (MASSACHUSETTS INSTITUTE OF TECHNOLOGY, priority 2007, published 2013)", "key": {"Mice (Balb/c) [1]": {"tested_on": "Mice (Balb/c)", "experiment": "Extinction of contextual freezing behavior after contextual fear conditioning", "assay_type": "in vivo", "protocol": "Animals: Mice (Balb/c, 12 weeks old) were housed under standard conditions with access to food and water ad libitum. All mice were purchased from Taconic (Germantown, N.Y.). Behavior testing was performed in a way that the mice were either housed in a separated compartment but within the testing room or different rooms were used for housing and testing. In the latter case the mice were brought to the testing room before the procedure. Although it appears that the dynamics of extinction behavior are somewhat variable depending on the employed behavior facility, the trends remain the same in different experiments. All experiments were approved by the corresponding Animal Use and Care Committee.\n(§1) Extinction of contextual freezing behavior: Extinction and reminder shock procedures were performed as described before^6. In brief, mice were exposed to contextual fear conditioning (3 min context followed by at mild electric foot shock, 2 s, 0.7 mA). In some experiments a tone (30 s, 10 kHz, 75 dB SPL) was presented for 30 s before the shock. Extinction was performed on consecutive days. An extinction trial consisted of a 3 min re-exposure to the conditioning context.\nSurgery/injection: Microcannula were purchased custom made from PlasticOne. The gauge of the guide and injection cannulae was 26 and 28, respectively. To insert cannulae into the dorsal hippocampus the coordinates AP −1.5 mm, lateral 1 mm, depth 2 mm were used as described before^18. To insert cannulae icy the coordinates AP +0.5 mm, lateral 1 mm, depth 2 mm were used. Butyrolactone I and roscovitine were dissolved and injected as described before^18. Rac-1 inhibitor was dissolved in aCSF and delivered bilaterally (0.5 μl/side) over a 1 min period. The correct localization of the cannulae was verified at the end of an experiment by methyleneblue injection. The cis-tronic Herpes Virus expressing GFP and dnPAK-1 or GFP alone was injected into the hippocampus bilaterally (0.5 μl/side) over a 2 min period. DnPAK-1 consisted of the DNA encoding amino acid 83-149 of PAK-1.\nTo test for a role of Cdk5 activity during extinction of learned fear, mice were implanted with microcannulae into the dorsal hippocampus (i.h.) and trained in the contextual fear conditioning paradigm. Fear conditioning consisted of a 3 min context exposure followed by a single electric foot shock ([…], constant current, 2 s). Subsequently, all mice were subjected to a daily extinction trial (E) on 6 consecutive days (E1-E6). Each extinction trial consisted of a 3 min re-exposure to the conditioned context without presenting the foot-shock again."}, "p35/Cdk5": {"tested_on": "p35/Cdk5", "experiment": "Immunoblot of p35/Cdk5 in hippocampal membrane and cytosolic fractions", "assay_type": "in vivo, mice", "settings": "icv 10 μg/μl after E1-E3, fractions 0.5 h after E3", "protocol": "(§2) Immunoblot analysis: Immunoblot analysis was performed as described before^19. The antibody detecting pPAK-1Thr212 was used in a 1:250 dilution.\n(§3) Anti-PAK-1 was from Santa Cruz (Santa Cruz, Calif.). All other antibodies were used in a 1:1000 dilution. pPAK-1Thr423 (Cell Signaling, Danvers, Mass.) synaptophysin (Sigma, St. Louis, Mo.), GAPDH and Rac-1 were from Upstate (Lake Placid, N.Y.), Cdk5 (J3) and p35 (C-19) were from Santa Cruz.\nTo this end, microcannuale were implanted into the lateral ventricles of mice that were subsequently trained by contextual fear conditioning and exposed to our extinction paradigm. Immediately after E1-E3 mice were injected with a Rac-1 inhibitor^35 (NSC23760; 10 μg/μl) or vehicle. Hippocampal membrane and cytosolic fractions were prepared 0.5 h after E3 and analyzed by immunoblot."}, "PAK-1": {"tested_on": "PAK-1", "experiment": "Immunoblot of PAK-1, PAK-1T212 and PAK-1T423 in hippocampal membrane and cytosolic fractions", "assay_type": "in vivo, mice", "protocol": "as §2, §3\nFirst, we measured PAK-1 phosphorylation at threonine 212 during extinction because this site is phosphorylated by p35/Cdk5^33. […] We also analyzed the activity of PAK-1 using a phospho-T423 antibody against PAK-1^37 in hippocampal lysates prepared from naïve mice and from mice 0.5 h after E1 or E3 by immunoblotting. We detected a significant increase in membrane associated PAK-1Thr423 levels after E3, when compared to E1 (FIG. 4b).\n(§4) Next, we set out experiments to determine if the regulation of PAK-1 activity during extinction depended on the activities of Rac-1 and Cdk5/p35. To this end, lysates prepared from mice that were injected with a Rac-1 inhibitor or vehicle (as described under FIG. 3c) were analyzed by immunoblot. […] Consistently, PAK-1 levels increased in the cytosol of mice treated with Rac-1 inhibitor.\nTo investigate the impact of Cdk5/p35 activity on PAK-1 function during extinction, mice were implanted with microcannulae into the lateral ventricles and injected with 50 ng butyrolactone I immediately after E1. Because a single injection of butyrolactone I after E1 was sufficient to facilitate extinction (see FIG. 1d), hippocampal lysates were prepared 0.5 h after E1 and analyzed by immunoblotting using PAK-1 antibodies (FIG. 5a). […] In contrast, PAK-1T423 levels increased in lysates obtained from butyrolactone I injected mice (FIG. 5 b, c)."}, "[2]": {"tested_on": "p35 co-immunoprecipitated with PAK-1", "experiment": "Co-immunoprecipitation of PAK-1 and p35 from hippocampal lysates", "assay_type": "in vivo, mice", "settings": "Rac-1 inhibitor icv; 0.5 h after E3", "protocol": "Membrane and cytosolic fractions were prepared form the hippocampus of mice 0.5 h after exposure to E1, E3 or from naïve animals and analyzed for the levels of the Cdk5 substrate PAK-1 by immunoblotting. […] In the cytosolic fraction pPAK-1T423 levels decreased after E1 when compared to naïve mice but increased back to baseline levels after E3. c. Hippocampal cytosolic and membrane fractions were prepared on E3 0.5 h after mice were injected (icv) with either vehicle or Rac-1 inhibitor. […] The same lysates as described under (c) were used to immunoprecipitate PAK-1. An HA antibody served a control for unspecific binding of proteins to the proteinA agarose beads. The precipitates were immunoblotted with antibodies against PAK-1 and p35. […] Error bars indicate S.E.M.\nas §4"}, "hippocampal Cdk5": {"target": "T1, hippocampal Cdk5 (Mus musculus, UniProt P49615)", "T1 construct": "from tissue; host or cells: hippocampus of Balb/c mice", "T1 sequence (P49615 whole entry)": "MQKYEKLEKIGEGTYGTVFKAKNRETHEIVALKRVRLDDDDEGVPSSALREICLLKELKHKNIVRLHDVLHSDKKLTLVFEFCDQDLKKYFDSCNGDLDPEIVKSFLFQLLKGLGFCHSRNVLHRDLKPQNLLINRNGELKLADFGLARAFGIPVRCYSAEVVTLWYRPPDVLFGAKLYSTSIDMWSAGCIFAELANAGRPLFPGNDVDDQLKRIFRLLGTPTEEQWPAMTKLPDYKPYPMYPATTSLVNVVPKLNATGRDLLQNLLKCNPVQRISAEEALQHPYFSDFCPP", "T1 sequence (P61809 2-307 partner limits assumed)": "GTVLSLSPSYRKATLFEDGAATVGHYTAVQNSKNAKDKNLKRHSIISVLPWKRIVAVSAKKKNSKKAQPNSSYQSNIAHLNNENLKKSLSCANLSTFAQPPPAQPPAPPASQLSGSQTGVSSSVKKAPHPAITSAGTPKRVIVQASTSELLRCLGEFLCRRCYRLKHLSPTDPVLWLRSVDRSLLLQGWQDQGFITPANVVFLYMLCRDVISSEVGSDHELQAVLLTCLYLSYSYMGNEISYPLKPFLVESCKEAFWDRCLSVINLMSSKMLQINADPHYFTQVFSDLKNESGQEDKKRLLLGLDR", "experiment": "Hippocampal Cdk5 activity measured by histone H1 phosphorylation", "assay_type": "in vivo, mice", "protocol": "(§5) In agreement with previous data the recovery of the fear response is rarely complete and may indicate that unlearning and new learning may coexist during extinction^29 30. […] In contrast, when butyrolactone I (50 ng) was administered 3 h after E1, freezing behavior was indistinguishable between butyrolactone I- and vehicle-injected mice (FIG. 1f). We estimated that the employed concentrations of butryrolactone I and roscovitine permit a specific inhibition of Cdk5. However high levels of those drugs may also affect Erk-1/2 kinases^31. […] Moreover, freezing behavior is not generally affected."}, "[3]": {"tested_on": "MAP kinase signaling pathway", "experiment": "MAP kinase signaling pathway in hippocampus after injection", "assay_type": "in vivo, mice", "settings": "50 ng into hippocampus", "protocol": "as §5"}, "Mice (Balb/c) [4]": {"tested_on": "Mice (Balb/c)", "experiment": "Extinction of amygdala-dependent cued fear", "assay_type": "in vivo", "settings": "intrahippocampal injection", "protocol": "as §1, §5"}, "[5]": {"tested_on": "Rac1 interaction with Rac1-specific GEFs TrioN, GEF-H1 and Tiam1", "settings": "Gao et al (2001) J. Biol. Chem. 276 47530; cited from earlier work"}, "[6]": {"settings": "Rac-1 inhibitor icv, 0.5 h after E3, cytosolic fraction"}, "[7]": {"settings": "Rac-1 inhibitor icv, 0.5 h after E3, membrane fraction"}, "[8]": {"settings": "50 ng immediately after E1, fractions 0.5 h later"}, "[9]": {"settings": "50 ng immediately after E1, fractions 0.5 h later, listed as Butyrolactone I"}}, "note": "“Also recorded” adds a separate entry of the source. Where no end group is shown, it is not given here."}
{"compound": "CCN(CC)CCCC(C)Nc1nc(C)cc(Nc2ccc3nc(C)cc(N)c3c2)n1", "note": "(stereo not drawn) [NSC23760]", "values": [{"measurement": "freezing behavior vs. vehicle group", "setting": "Mice (Balb/c) [1]; icv 10 μg/μl immediately after E1-E3", "value": "significant reduction of freezing behavior; also recorded: reduced freezing"}, {"measurement": "membrane associated p35 and Cdk5 levels / distribution vs. vehicle", "setting": "p35/Cdk5", "value": "dramatic redistribution of membrane associated p35 and Cdk5 to the cytosol"}, {"measurement": "membrane associated p35 and Cdk5 levels / distribution vs. vehicle", "setting": "p35/Cdk5; listed as Rac-1 inhibitor", "value": "significant reduction of membrane-associated Cdk5/p35"}, {"measurement": "PAK-1 levels in the cytosol vs. vehicle", "setting": "PAK-1; [6]", "value": "increased"}, {"measurement": "cytosolic PAK-1T212 levels vs. vehicle", "setting": "PAK-1; [6]", "value": "decreased"}, {"measurement": "membrane associated PAK-1T212 levels vs. vehicle", "setting": "PAK-1; [7]", "value": "dramatic reduction; also recorded: significant reduction"}, {"measurement": "membrane associated PAK-1 levels vs. vehicle", "setting": "PAK-1; [7]", "value": "dramatic reduction; also recorded: significant reduction"}, {"measurement": "amount of p35 co-immunoprecipitated with PAK-1 vs. vehicle", "setting": "[2]", "value": "reduced amount of p35 co-immunoprecipitated with PAK-1; also recorded: Much less p35 co-immunoprecipitated with PAK-1"}]}
{"compound": "COC(=O)[C@@]1(Cc2ccc(O)c(CC=C(C)C)c2)OC(=O)C(O)=C1c1ccc(O)cc1", "note": "[butyrolactone I]", "values": [{"measurement": "freezing behavior / extinction vs. vehicle group", "setting": "Mice (Balb/c) [1]; 12.5 ng i.h. after E1-E3, listed as butyrolactone 1", "value": "no significant effect on the reduction of freezing behavior"}, {"measurement": "freezing behavior / extinction vs. vehicle group", "setting": "Mice (Balb/c) [1]; 25 ng i.h. after E1-E3", "value": "Extinction was similar in vehicle and butyrolactone I injected mice"}, {"measurement": "freezing behavior / extinction vs. vehicle group", "setting": "Mice (Balb/c) [1]; 25 ng i.h. after E1-E3, listed as butyrolactone 1", "value": "no significant effect on the reduction of freezing behavior"}, {"measurement": "freezing behavior / extinction vs. vehicle group", "setting": "Mice (Balb/c) [1]; 50 ng i.h. 3 h after E1", "value": "indistinguishable"}, {"measurement": "freezing behavior / extinction vs. vehicle group", "setting": "Mice (Balb/c) [1]; 50 ng i.h. 3 h after E1, listed as butyrolacone I", "value": "no significant effect on extinction"}, {"measurement": "freezing behavior vs. vehicle group", "setting": "Mice (Balb/c) [1]; 50 ng i.h. immediately after E1-E3", "value": "reduced freezing behavior on E2 and E3"}, {"measurement": "freezing behavior vs. vehicle group", "setting": "Mice (Balb/c) [1]; 50 ng i.h. immediately after E1-E3, listed as butyrolactone 1", "value": "significantly reduced freezing behavior on E2 and E3"}, {"measurement": "freezing behavior vs. vehicle group", "setting": "Mice (Balb/c) [1]; 50 ng injected 1 h after E1", "value": "significant reduction of freezing behavior on E2"}, {"measurement": "reinstatement of freezing behavior by reminder shock procedure", "setting": "Mice (Balb/c) [1]; after 50 ng i.h. following E1-E3", "value": "able to reinstate freezing behavior"}, {"measurement": "freezing behavior during the extinction trial", "setting": "Mice (Balb/c) [1]; intrahippocampal injection 15 min before extinction trial 1 or 2", "value": "did not affect freezing behavior during the extinction trial"}, {"measurement": "freezing behavior vs. vehicle group", "setting": "Mice (Balb/c) [1]; single injection i.h. 50 ng immediately after E1", "value": "significantly diminished freezing behavior on the subsequent extinction trials"}, {"measurement": "freezing behavior vs. vehicle group", "setting": "Mice (Balb/c) [1]; single injection i.h. 50 ng immediately after E1, listed as butyrolactone", "value": "significant reduction of freezing behavior on E2"}, {"measurement": "hippocampal Cdk5 activity (histone H1 phosphorylation)", "setting": "hippocampal Cdk5; 12.5 ng i.h.", "value": "did not reduce hippocampal Cdk5 activity"}, {"measurement": "hippocampal Cdk5 activity (histone H1 phosphorylation)", "setting": "hippocampal Cdk5; 25 ng i.h.", "value": "did not reduce hippocampal Cdk5 activity"}, {"measurement": "effect on MAP kinase signaling pathway", "setting": "[3]", "value": "did not affect the MAP kinase signaling pathway"}, {"measurement": "extinction of amygdala-dependent cued fear", "setting": "Mice (Balb/c) [4]", "value": "did not affect extinction of amygdala-dependent cued fear"}, {"measurement": "PAK-1T212 levels in the cytosolic fraction vs. vehicle", "setting": "PAK-1; [8]", "value": "significantly reduced"}, {"measurement": "PAK-1T212 levels in the membrane fraction vs. vehicle", "setting": "PAK-1; [8]", "value": "reduced"}, {"measurement": "distribution of total PAK-1 between membrane and cytosol vs. vehicle", "setting": "PAK-1; [8]", "value": "re-distribution of total PAK-1 from the membrane to the cytosol"}, {"measurement": "PAK-1T212 levels in the cytosolic fraction vs. vehicle", "setting": "PAK-1; [9]", "value": "decreased"}, {"measurement": "PAK-1T212 levels in the membrane fraction vs. vehicle", "setting": "PAK-1; [9]", "value": "decreased"}, {"measurement": "distribution of total PAK-1 between membrane and cytosol vs. vehicle", "setting": "PAK-1; 50 ng immediately after E1, fractions 0.5 h later, listed as butyrolactone", "value": "significant re-distribution of PAK-1 from the membrane to the cytosol"}, {"measurement": "PAK-1T423 levels vs. vehicle", "setting": "PAK-1; 50 ng immediately after E1, fractions 0.5 h later, membrane fraction (FIG. 5c)", "value": "significantly increased"}]}
{"compound": "CC[C@H](CO)Nc1nc(NCc2ccccc2)c2ncn(C(C)C)c2n1", "note": "[roscovitine]", "values": [{"measurement": "freezing behavior vs. vehicle group", "setting": "Mice (Balb/c) [1]; roscovitine i.h. 50 ng into dorsal hippocampus immediately after E1-E3", "value": "reduced freezing behavior"}]}
{"compound": "MVDGKPVNLGLWDTAG [Rac1 Inhibitor W56]", "values": [{"measurement": "inhibition of Rac1 interaction with Rac1-specific GEFs", "setting": "[5]", "value": "selectively inhibits"}]}
